Here are results for 7 compounds from patent US6531143B1, “α-hydroxy fatty acid derivatives and external compositions containing the same” (Kanebo, Limited, priority 1998, dated 2003).

Broadly, the melting point is the temperature, or range, at which the solid turns liquid.

In data set [1] the test system is skin (facies medialis brachii of 20 subjects). The settings on record: in vivo.
Experimental: (§1) As the safety test, irritation to the skin was examined by the following method. Each sample of the alpha-hydroxy fatty acid derivatives obtained in the Examples prepared by dissolving in olive oil in the concentration of 50 wt % and an adhesive plaster for patch test was impregnated with 1 ml of the sample. The adhesive plaster was put on the facies medialis brachii of 20 subjects for 24 hours. Irritation was evaluated 24 hours after removing the patch.
Data set [2] has the same test system. The data set is described as follows: Safety test: irritation to the skin, 24 h patch test. The note with it: 50 wt % in olive oil, 1 ml on adhesive plaster, 24 hours on facies medialis brachii, evaluated 24 hours after removing the patch, subjects with clear erythema.
Experimental: as §1

Like-named read-outs stand apart in the source and are kept apart here.

As to “2-long-chain branched fatty acid (12-31) oxypalmitic acid palmityl ester”, the Positive percentage in data set [1] came out at 0%.
The compound `CCCCCCCCCCCCCCCCOC(=O)C(CCCCCCCCCCCCCC)OC(C)=O` (stereo not shown) [2-acetyloxypalmitic acid palmityl ester] yielded a melting point of 35.1 °C. Also, the Positive percentage in data set [2] is on record as 0%.
Regarding `CCCCCCCCCCCCCCCCC(OC(C)=O)C(=O)OCCCCCCCCCCCCCCCCCC(C)C` (stereo not shown) [2-acetyloxystearic acid-(18)-methylnonadecanyl ester], the Positive percentage in data set [2] was 0%.
In data set [2], `CCCCCCCCCCCCC(OC(=O)C(C)C)C(=O)OCCCCCCCCCCCCCCCCCC(C)CC` (stereo not shown) [2-isobutyryloxymyristic acid-(18)-methylicosanyl ester] had a Positive percentage of 0%.
`CCCCCCCCCCCCCCCCOC(=O)C(CCCCCCCCCCCCCC)OC(=O)C(C)C` (stereo not shown) [2-isobutyryloxypalmitic acid palmityl ester] displayed a melting point of 28.3 °C. This compound also came in with a Positive percentage in data set [2] of 0%.
The compound `CCCCCCCCCCCCOC(=O)C(CCCCCCCCCC)OC(=O)CC(C)C` (stereo not shown) [2-isovaleryloxylauric acid lauryl ester] had a Positive percentage in data set [2] of 0%.
Compound `CCCCCCCCCCCCCCCCOC(=O)C(CCCCCCCCCCCCCC)OC(=O)CCCCCCCCCCCCCCC` (stereo not shown) [2-palmitoyloxypalmitic acid palmityl ester] had a melting point of 52.5 °C. The compound further displayed a Positive percentage in data set [2] of 0%.
